Assays:
collagen I = assay: Staining and immunolabelling of skin explant sections: collagen I; type: cell-based, human; settings: treated skin explant sections
Description: 1. Preparation of the explants • During abdominoplasty of a person, 45 skin explants were prepared. The explants were put in BEM medium (BIO-EC's Explants Medium) for survival at 37° C. in humid atmosphere, enriched with 5% CO2.
2. Application of the products • The solutions are prepared in DMSO from pure products, in order to obtain final concentrations of […] by incorporating an identical volume of 10 μl in each well and for each treatment. The treatment was carried out in the survival medium on days 0, 1, 2, 5 and 7.
3. Taking samples • On D0, the 3 explants of batch TO were taken and each explant was cut in two. One part was fixed in buffered formol for observation of the general morphology. The other was frozen and stored at −80° C. • On D5 and D9, 3 explants from each batch were taken and treated in the same way.
4. Histological treatment • After fixation for 48 hours in buffered formol, the samples were dehydrated and embedded in paraffin using a Leica 1020 automatic dehydrator. They were embedded according to procedure MO-H-153 using a Leica EG 1160 coating station. Sections of 5 μm were prepared according to procedure MO-H-173 using a Minot-type microtome, Leica RM 2125 and mounted on Superfrost® histological glass slides.
6. Staining and immunolabelling
Immunolabelling will be carried out on sections with the appropriate antibody. […]

PPARα (h) [1] = molecular target: T1, PPARα (h) (Homo sapiens, UniProt Q07869); assay: PPARα competitive radioligand binding assay (Cerep)
T1 sequence (Q07869 1-468): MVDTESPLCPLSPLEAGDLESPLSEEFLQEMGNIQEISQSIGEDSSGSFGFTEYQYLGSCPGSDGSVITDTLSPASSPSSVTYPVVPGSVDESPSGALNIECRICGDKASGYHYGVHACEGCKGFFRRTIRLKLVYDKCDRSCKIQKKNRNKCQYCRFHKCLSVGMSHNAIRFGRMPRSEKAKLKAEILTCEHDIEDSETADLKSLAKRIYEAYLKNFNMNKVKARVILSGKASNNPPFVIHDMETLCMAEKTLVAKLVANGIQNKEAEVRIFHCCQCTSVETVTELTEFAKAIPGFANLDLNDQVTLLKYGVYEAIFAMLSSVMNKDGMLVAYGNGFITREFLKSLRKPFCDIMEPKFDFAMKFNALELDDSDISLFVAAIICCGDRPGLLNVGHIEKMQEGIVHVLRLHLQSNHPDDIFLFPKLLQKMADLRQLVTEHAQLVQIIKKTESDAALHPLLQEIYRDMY
Description: (§1) The affinity of compound 1 for the PPAR receptors (α and γ) was tested by in vitro binding assays (tests carried out by the company Cerep).
(§2) This is a nuclear receptor competitive binding assay, between a radiolabelled ligand and the test molecule (here compound 1).
(§3) The principle of the technique consists of measuring the displacement of the radioactive ligand bound to the receptor by the test molecule. • Material and Methods
(§4) The specific binding of the ligand is defined by the difference between total binding and non-specific binding determined in the presence of an excess of unlabelled ligand.
(§5) The results are expressed as: • percentage of control specific binding ((measured specific binding/control specific binding)×100)) • percentage of inhibition of control specific binding ((100−(measured specific binding/control specific binding)) obtained in the presence of compound 1.
(§6) The values of IC50 (concentration at which the maximum control specific binding is inhibited by 50%), and the Hill coefficient (nH) are determined by non-linear regression analysis of the curves of competition with a mean replicated value using adjustment of Hill's equation
(§7) The inhibition constant (Ki) was calculated using the Cheng-Prusoff equation

PPARγ (h) [2] = molecular target: T2, PPARγ (h) (Homo sapiens, UniProt P37231); assay: PPARγ competitive radioligand binding assay (Cerep)
T2 construct: Cerep (contract laboratory that ran the assay)
T2 sequence (P37231 1-505): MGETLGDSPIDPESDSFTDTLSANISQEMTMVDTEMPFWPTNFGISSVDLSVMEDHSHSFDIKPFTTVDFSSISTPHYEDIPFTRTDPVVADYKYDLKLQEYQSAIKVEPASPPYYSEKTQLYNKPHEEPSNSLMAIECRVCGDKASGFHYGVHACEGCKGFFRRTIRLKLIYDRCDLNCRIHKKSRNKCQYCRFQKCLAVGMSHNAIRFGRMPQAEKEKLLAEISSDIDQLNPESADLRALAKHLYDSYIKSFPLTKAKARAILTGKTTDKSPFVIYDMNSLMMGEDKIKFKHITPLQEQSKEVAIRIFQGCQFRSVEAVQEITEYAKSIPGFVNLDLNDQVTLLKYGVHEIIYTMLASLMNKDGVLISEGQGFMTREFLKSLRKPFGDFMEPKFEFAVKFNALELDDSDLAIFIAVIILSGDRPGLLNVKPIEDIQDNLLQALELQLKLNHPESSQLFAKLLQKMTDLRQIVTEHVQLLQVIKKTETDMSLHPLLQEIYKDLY
Description: as §1, §2, §3, §4, §5, §6, §7

PPARα (h) [3] = molecular target: T1, PPARα (h); assay: PPARα agonist effect, coactivator Alpha screen; type: biochemical
Description: (§8) The agonist or antagonist activity of compound 1 on the PPAR receptors was tested by fluorescence techniques. • Material and Methods
(§9) The results are expressed as: • percentage of control specific agonist response (measured specific response/control specific agonist response)×100) and • percentage inhibition of the control specific agonist response (100−((measured specific response)/control specific agonist response)×100)) obtained in the presence of compound 1.
(§10) The EC50 values (concentration at which the maximum specific response is 50%) and the IC50 values (concentration at which the maximum control specific agonist response is inhibited by 50%) are determined by non-linear regression analysis of the concentration-response curves with a mean replicated value using adjustment of Hill's equation

PPARγ (h) [4] = molecular target: T2, PPARγ (h); assay: PPARγ agonist effect, coactivator Alpha screen; type: biochemical
Description: as §8, §9, §10

PPARα (h) [5] = molecular target: T1, PPARα (h); assay: PPARα antagonist effect, coactivator Alpha screen; type: biochemical
Description: as §8, §9, §10
For the antagonists, the apparent dissociation constants (KB) were calculated using the modified Cheng-Prusoff equation

[6] = 10^−5 M, agonist radioligand, read-out: % Inhibition of control specific binding
[7] = 10^−6 M, agonist radioligand, read-out: % Inhibition of control specific binding
[8] = 10^−7 M, agonist radioligand, read-out: % Inhibition of control specific binding

inhibition at 10 µM (PPARα (h) [1]; [6]): 0%
inhibition at 1 µM (PPARα (h) [1]; [7]): -2%
inhibition at 0.1 µM (PPARα (h) [1]; [8]): -5%
Activity with respect to the PPARα receptor (binding, conclusion in words) (PPARα (h) [1]; 10^−7 to 10^−5 M): no activity
Interpretation of the 49% inhibition of PPARγ specific binding (PPARγ (h) [2]; 10^−5 M): slight to moderate effect
inhibition at 10 µM (PPARγ (h) [2]; [6]): 49%
inhibition at 1 µM (PPARγ (h) [2]; [7]): 1%
inhibition at 0.1 µM (PPARγ (h) [2]; [8]): 0%
Activity with respect to the PPARγ receptor (binding, conclusion in words) (PPARγ (h) [2]; 10^−7 to 10^−5 M): no activity
% Control agonist response (PPARα (h) [3]; 10^−5 M): 2%
% Control agonist response (PPARα (h) [3]; 10^−6 M): 0%
% Control agonist response (PPARα (h) [3]; 10^−7 M): −1%
PPARα agonist activity (conclusion in words) (PPARα (h) [3]; 10^−7 to 10^−5 M): not an agonist
% Control agonist response (PPARγ (h) [4]; 10^−5 M): 0%
% Control agonist response (PPARγ (h) [4]; 10^−6 M): 0%
% Control agonist response (PPARγ (h) [4]; 10^−7 M): 0%
PPARγ agonist activity (conclusion in words) (PPARγ (h) [4]; 10^−7 to 10^−5 M): not an agonist
inhibition at 10 µM (PPARα (h) [5]; 10^−5 M, read-out: % Inhibition of control agonist response): 4%
inhibition at 1 µM (PPARα (h) [5]; 10^−6 M, read-out: % Inhibition of control agonist response): 0%
inhibition at 0.1 µM (PPARα (h) [5]; 10^−7 M, read-out: % Inhibition of control agonist response): 1%
PPARα antagonist activity (conclusion in words) (PPARα (h) [5]; 10^−7 to 10^−5 M): not an antagonist
Compound: Oc1ccccc1CCOc1ccc(F)cc1 [Compound 1, 2-[2-(4-fluoro-phenoxy)-ethyl]-phenol]
Collagen I in the papillary dermis (collagen I): clear overexpression

Reference: patent US20150004110A1, “NOVEL ANTI-AGING AND DEPIGMENTING COSMETIC COMPOSITIONS” (DIVERCHIM, priority 2011, published 2015)
